Measurements reported in patent US7534894B2, “Biphenyloxy-acids” (Wyeth, priority 2003, dated 2009).

How the values were obtained:
[1] = target: T1, recombinant human plasminogen activator inhibitor-1 (PAI-1) (Homo sapiens, UniProt P05121); assay: Kinetic IC50: modification of the Primary Screen for the PAI-1 Inhibition; assay type: biochemical
T1 construct: purchased Molecular Innovations, Royal Oak, Mich
Protocol: (§1) Test compounds are dissolved in DMSO at a final concentration of 10 mM, then diluted 101× in physiologic buffer. The inhibitory assay is initiated by the addition of the test compound (1-100 μM final concentration, maximum DMSO concentration of 0.2%) in a pH 6.6 buffer containing 140 nM recombinant human plasminogen activator inhibitor-1 (PAI-1; Molecular Innovations, Royal Oak, Mich.). Following a 1 hour incubation at room temperature, 70 nM of recombinant human tissue plasminogen activator (tPA) is added, and the combination of the test compound, PAI-1 and tPA is incubated for an additional 30 minutes. Following the second incubation, Spectrozyme-tPA (American Diagnostica, Greenwich, Conn.), a chromogenic substrate for tPA, is added and absorbance read at 405 nm at 0 and 60 minutes. Relative PAI-1 inhibition is equal to the residual tPA activity in the presence of the test compound and PAI-1. Control treatments include the complete inhibition of tPA by PAI-1 at the molar ratio employed (2:1), and the absence of any effect of the test compound on tPA alone.

[2] = target: T1, recombinant human plasminogen activator inhibitor-1 (PAI-1); assay: Primary Screen for the PAI-1 Inhibition (residual tPA activity, chromogenic substrate Spectrozyme-tPA); assay type: biochemical; details: 140 nM PAI-1, 70 nM tPA, pH 6.6
Protocol: as §1

T1 sequence (P05121 24-402): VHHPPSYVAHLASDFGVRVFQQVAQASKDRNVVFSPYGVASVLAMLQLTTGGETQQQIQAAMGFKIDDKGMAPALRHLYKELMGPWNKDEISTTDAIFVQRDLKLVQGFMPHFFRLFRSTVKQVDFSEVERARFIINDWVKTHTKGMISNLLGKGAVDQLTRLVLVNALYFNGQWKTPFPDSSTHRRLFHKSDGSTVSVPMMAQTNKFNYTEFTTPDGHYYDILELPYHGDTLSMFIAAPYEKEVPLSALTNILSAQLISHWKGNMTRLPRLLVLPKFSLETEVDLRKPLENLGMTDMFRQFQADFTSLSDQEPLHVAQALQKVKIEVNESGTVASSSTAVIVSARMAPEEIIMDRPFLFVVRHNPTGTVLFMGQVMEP

Row | IC50 [1] | inhibition at 25 µM ([2]; 25 μM test compound) | inhibition at 100 µM ([2]; 100 μM test compound) | Compound | % Inhibition 25 μM ([2]; 25 μM test compound) | % Inhibition 100 μM ([2]; 100 μM test compound)
1 | 31.2 µM | 31% | 83% | O=C(O)C(Cc1ccccc1)Oc1cccc(-c2ccc(NC(=O)C3(c4ccc(Cl)cc4)CC3)cc2)c1 (stereo not drawn) [Compound 29, 2-{[4′-({[1-(4-chlorophenyl)cyclopropyl]carbonyl}amino)-1,1′-biphenyl-3-yl]oxy}-3-phenylpropanoic acid] |  | 
2 |  | 1% | 60% | O=C(O)COc1ccc(-c2ccc(CNC(=O)c3cnn(-c4ccccc4)c3C(F)(F)F)cc2)cc1 [Compound 1, ({4′-[({[1-phenyl-5-(trifluoromethyl)-1H-pyrazol-4-yl]carbonyl}amino)methyl][1,1′-biphenyl]-4-yl}oxy)acetic acid] |  | 
3 | 7.8 µM | 20% | 63% | CCCc1c(C(=O)Nc2ccc(-c3cccc(OC(Cc4ccccc4)C(=O)O)c3)cc2)cnn1-c1ccc(Cl)cc1 (stereo not drawn) [Compound 27, 2-{[4′-({[1-(4-chlorophenyl)-5-propyl-1H-pyrazol-4-yl]carbonyl}amino)-1,1′-biphenyl-3-yl]oxy}-3-phenylpropanoic acid] |  | 
4 | 8.71 µM | 25% | 90% | CCCCc1oc2ccccc2c1C(=O)Nc1ccc(-c2ccc(OC(Cc3ccccc3)C(=O)O)cc2)cc1 (stereo not drawn) [Compound 49, 2-[(4′-{[(2-butyl-1-benzofuran-3-yl)carbonyl]amino}-1,1′-biphenyl-4-yl)oxy]-3-phenylpropanoic acid] |  | 
5 |  | 28% | 52% | O=C(Nc1ccc(-c2ccc(OC(Cc3ccccc3)C(=O)O)cc2)cc1)c1ccc(-c2ccc(Cl)cc2)o1 (stereo not drawn) [Compound 21, 2-[(4′-{[5-(4-chlorophenyl)-2-furoyl]amino}-1,1′-biphenyl-4-yl)oxy]-3-phenylpropanoic acid] |  | 
6 | 39.3 µM | 15% | 80% | O=C(O)COc1ccc(-c2ccc(NC(=O)C3(c4ccc(Cl)cc4)CCC3)cc2)cc1 [Compound 35, {[4′-({[1-(4-chlorophenyl)cyclobutyl]carbonyl}amino)-1,1′-biphenyl-4-yl]oxy}acetic acid] |  | 
7 | 7.41 µM | 27% | 70% | O=C(Nc1ccc(-c2cccc(OC(Cc3ccccc3)C(=O)O)c2)cc1)c1cc2cc(OCc3ccccc3)ccc2[nH]1 (stereo not drawn) [Compound 28, 2-{[4′-({[5-(benzyloxy)-1H-indol-2-yl]carbonyl}amino)-1,1′-biphenyl-3-yl]oxy}-3-phenylpropanoic acid] |  | 
8 |  | 29% | 85% | Cc1cc(C)c2c(c1C(=O)Nc1ccc(-c3cccc(OC(Cc4ccccc4)C(=O)O)c3)cc1)CC(C)(C)C2=O (stereo not drawn) [Compound 54, 3-phenyl-2-[(4′-{[(2,2,5,7-tetramethyl-1-oxo-2,3-dihydro-1H-inden-4-yl)carbonyl]amino}-1,1′-biphenyl-3-yl)oxy]propanoic acid] |  | 
9 | 40.8 µM | 26% | 74% | O=C(O)C(Cc1ccccc1)Oc1cccc(-c2ccc(NC(=O)C3(c4ccccc4)CCCC3)cc2)c1 (stereo not drawn) [Compound 25, 3-phenyl-2-[(4′-{[(1-phenylcyclopentyl)carbonyl]amino}-1,1′-biphenyl-3-yl)oxy]propanoic acid] |  | 
10 |  | 26% | 53% | O=C(Nc1ccc(-c2ccc(OC(Cc3ccccc3)C(=O)O)cc2)cc1)c1ccc2ccccc2c1 (stereo not drawn) [Compound 55, 2-{[4′-(2-naphthoylamino)-1,1′-biphenyl-4-yl]oxy}-3-phenylpropanoic acid] |  | 
11 | 18.1 µM | 13% | 65% | O=C(Nc1ccc(-c2cccc(OC(Cc3ccccc3)C(=O)O)c2)cc1)c1ccc(Oc2ccccc2)cc1 (stereo not drawn) [Compound 37, 2-({4′-[(4-phenoxybenzoyl)amino]-1,1′-biphenyl-3-yl}oxy)-3-phenylpropanoic acid] |  | 
12 | 5.4 µM | 36% | 84% | O=C(Nc1ccc(-c2ccc(OC(Cc3ccccc3)C(=O)O)cc2)cc1)c1ccc(-c2ccc(Cl)cc2)s1 (stereo not drawn) [Compound 46, 2-{[4′-({[5-(4-chlorophenyl)thien-2-yl]carbonyl}amino)-1,1′-biphenyl-4-yl]oxy}-3-phenylpropanoic acid] |  | 
13 |  |  |  | CCCc1c(C(=O)NCc2ccc(-c3ccc(OCc4nnn[nH]4)c(Br)c3)cc2)cnn1-c1ccccc1 [Compound 5, N-{[3′-bromo-4′-(H-tetraazol-5-ylmethoxy)[1,1′-biphenyl]-4-yl]methyl}-1-phenyl-5-propyl-1H-pyrazole-4-carboxamide] | 23% | 73%
14 | 38.7 µM | 5% | 52% | O=C(Nc1ccc(-c2cccc(OC(Cc3ccccc3)C(=O)O)c2)cc1)c1ccc(-c2ccc(Cl)cc2)s1 (stereo not drawn) [Compound 38, 2-{[4′-({[5-(4-chlorophenyl)thien-2-yl]carbonyl}amino)-1,1′-biphenyl-3-yl]oxy}-3-phenylpropanoic acid] |  | 
15 |  | 55% |  | Cn1cc(C(=O)N(Cc2ccccc2)Cc2ccc(-c3ccc(OCc4nnn[nH]4)c(Br)c3)cc2)c2ccccc21 [Compound 12, N-benzyl-N-{[3′-bromo-4′-(1H-tetraazol-5-ylmethoxy)-1,1′-biphenyl-4-yl]methyl}-1-methyl-1H-indole-3-carboxamide] |  | 
16 | 16.4 µM | 58% | 69% | O=C(O)C(Cc1ccccc1)Oc1cccc(-c2ccc(NC(=O)C3(c4ccc(Cl)cc4)CCCC3)cc2)c1 (stereo not drawn) [Compound 26, 2-{[4′-({[1-(4-chlorophenyl)cyclopentyl]carbonyl}amino)-1,1′-biphenyl-3-yl]oxy}-3-phenylpropanoic acid] |  | 
17 | 23.2 µM | 7% | 78% | O=C(Nc1ccc(-c2ccc(OC(Cc3ccccc3)C(=O)O)cc2)cc1)c1cc(-c2ccccc2Cl)oc1C(F)(F)F (stereo not drawn) [Compound 48, 2-[(4′-{[5-(2-chlorophenyl)-2-(trifluoromethyl)-3-furoyl]amino}-1,1′-biphenyl-4-yl)oxy]-3-phenylpropanoic acid] |  | 
18 | 18.6 µM | 35% | 57% | O=C(Nc1ccc(-c2cccc(OC(Cc3ccccc3)C(=O)O)c2)cc1)c1cc(-c2ccc(-c3ccccc3)cc2)oc1C(F)(F)F (stereo not drawn) [Compound 42, 2-[(4′-{[5-(1,1′-biphenyl-4-yl)-2-(trifluoromethyl)-3-furoyl]amino}-1,1′-biphenyl-3-yl)oxy]-3-phenylpropanoic acid] |  | 
19 |  | 46% | 60% | O=C(O)C(Cc1ccccc1)Oc1cccc(-c2ccc(NC(=O)C3(c4ccc(Cl)cc4)CCCCC3)cc2)c1 (stereo not drawn) [Compound 51, 2-{[4′-({[1-(4-chlorophenyl)cyclohexyl]carbonyl}amino)-1,1′-biphenyl-3-yl]oxy}-3-phenylpropanoic acid] |  | 
20 |  | 19% | 52% | O=C(O)C(Cc1ccccc1)Oc1cccc(-c2ccc(NC(=O)C3(c4ccccc4)CC3)cc2)c1 (stereo not drawn) [Compound 53, 3-phenyl-2-[(4′-{[(1-phenylcyclopropyl)carbonyl]amino}-1,1′-biphenyl-3-yl)oxy]propanoic acid] |  | 
21 |  | 34% | 58% | O=C(Nc1ccc(-c2ccc(OC(Cc3ccccc3)C(=O)O)cc2)cc1)c1sc2ccccc2c1Cl (stereo not drawn) [Compound 57, 2-[(4′-{[(3-chloro-1-benzothien-2-yl)carbonyl]amino}-1,1′-biphenyl-4-yl)oxy]-3-phenylpropanoic acid] |  | 
22 |  | 40% | 66% | CCCc1ccc(-c2ccc(C(=O)Nc3ccc(-c4ccc(OC(Cc5ccccc5)C(=O)O)cc4)cc3)cc2)cc1 (stereo not drawn) [Compound 20, 3-phenyl-2-[(4′-{[(4′-propyl-1,1′-biphenyl-4-yl)carbonyl]amino}-1,1′-biphenyl-4-yl)oxy]propanoic acid] |  | 
23 |  | 55% | 53% | O=C(O)C(Cc1ccccc1)Oc1ccc(-c2ccc(NC(=O)C3(c4ccc(Cl)cc4)CCCC3)cc2)cc1 (stereo not drawn) [Compound 52, 2-{[4′-({[1-(4-chlorophenyl)cyclopentyl]carbonyl}amino)-1,1′-biphenyl-4-yl]oxy}-3-phenylpropanoic acid] |  | 
24 |  | 3% | 77% | O=C(O)COc1ccc(-c2ccc(NC(=O)C3(c4cccc(F)c4)CCCC3)cc2)cc1 [Compound 23, {[4′-({[1-(3-fluorophenyl)cyclopentyl]carbonyl}amino)-1,1′-biphenyl-4-yl]oxy}acetic acid] |  | 
25 |  | 53% |  | CCCCc1oc2ccccc2c1C(=O)N(Cc1ccccc1)Cc1ccc(-c2ccc(OCc3nnn[nH]3)c(Br)c2)cc1 [Compound 11, N-benzyl-N-{[3′-bromo-4′-(1H-tetraazol-5-ylmethoxy)-1,1′-biphenyl-4-yl]methyl}-2-butyl-1-benzofuran-3-carboxamide] |  | 
26 |  | 30% | 89% | O=C(O)COc1ccc(-c2ccc(NC(=O)C3(c4ccc(Cl)cc4)CCCC3)cc2)cc1 [Compound 22, {[4′-({[1-(4-chlorophenyl)cyclopentyl]carbonyl}amino)-1,1′-biphenyl-4-yl]oxy}acetic acid] |  | 

Row | Compound | IC50 [1] | inhibition at 25 µM ([2]; 25 μM test compound) | inhibition at 100 µM ([2]; 100 μM test compound) | % Inhibition 25 μM ([2]; 25 μM test compound) | % Inhibition 100 μM ([2]; 100 μM test compound)
27 | CCCCOc1ccc2cc(C(=O)Nc3ccc(-c4ccc(OC(Cc5ccccc5)C(=O)O)cc4)cc3)ccc2c1 (stereo not drawn) [Compound 56, 2-({4′-[(6-butoxy-2-naphthoyl)amino]-1,1′-biphenyl-4-yl}oxy)-3-phenylpropanoic acid] |  |  | 53% |  | 
